Reference: patent US20120115845A1, “THERAPEUTIC AGENTS” (priority 2007, published 2012)
pEC50, pIC50: −log10 of the molar value.

Assays:
human GHS receptor [1] = target: T1, human GHS receptor (Homo sapiens, UniProt Q92847); assay: h bind IC50 (binding assay, Table 1); settings: human receptor; Table 1
human GHS receptor [2] = target: T1, human GHS receptor; assay: Ghrelin IP1 agonist assay (IP1 HTRF); type: cell-based; design: expressed in transfected cells; host or cells: HEK293s; settings: for Emax: 2 h, agonist effect as % maximal effect of GHRP-6 (5 μM), read-out: h IP1 ag %; for pEC50: HEK293s cells stably expressing human GHS receptor, 2 hours at 37° C., read-out: h IP1 ag EC50
Method: In HEK293s cells stably expressing human GHS receptor (In-house), agonist activity was assessed by measuring intracellular myo-Inositol 1 phosphate (IP1) using the IP1 HTRF assay kit (Cisbio International).
Cells were harvested using accutase (Sigma), spun down at 1000 rpm for 5 minutes and resuspended in stimulation buffer (as above) containing 0.02% fatty acid free BSA at a density of 1.43E6cells/ml.
Agonist effect of the compound was expressed as % maximal effect of GHRP-6 (5 μM: Bachem). Sigmoidal curves were fitted by Origin 7.5 Client and EC50 values determined.

T1 sequence (Q92847 whole entry): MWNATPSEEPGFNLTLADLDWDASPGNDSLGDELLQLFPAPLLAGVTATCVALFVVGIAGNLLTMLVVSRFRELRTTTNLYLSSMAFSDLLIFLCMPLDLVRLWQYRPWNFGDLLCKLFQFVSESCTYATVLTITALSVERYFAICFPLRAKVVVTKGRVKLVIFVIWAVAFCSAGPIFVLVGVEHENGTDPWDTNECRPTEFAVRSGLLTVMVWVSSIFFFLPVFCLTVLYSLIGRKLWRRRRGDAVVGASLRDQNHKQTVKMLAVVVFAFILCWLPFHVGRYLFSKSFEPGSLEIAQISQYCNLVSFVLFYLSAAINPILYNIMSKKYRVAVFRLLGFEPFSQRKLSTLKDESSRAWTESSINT

Compound: CCOc1cc(Cl)c(C(=O)NC(=O)Nc2nc3ccc(S(=O)(=O)C4CCN(C)CC4)cc3s2)cc1-n1cccn1 [Example 261, 2-chloro-4-ethoxy-N-(6-(1-methylpiperidin-4-ylsulfonyl)benzo [d]thiazol-2-ylcarbamoyl)-5-(1H-pyrazol-1-yl)benzamide]
- pIC50 (human GHS receptor [1]): 9.03
- Emax (human GHS receptor [2]): 0%
- pEC50 (human GHS receptor [2]): ≤ 4.70

Compound: CS(=O)(=O)c1ccc2nc(NC(=O)NC(=O)c3ccccc3-n3cccc3)sc2c1 [Example 134, N-[(6-Methylsulfonylbenzothiazol-2-yl)carbamoyl]-2-pyrrol-1-yl-benzamide]
- pIC50 (human GHS receptor [1]): 6.66
- Emax (human GHS receptor [2]): 63.9%
- pEC50 (human GHS receptor [2]): 7.88

Compound: O=C(NC(=O)c1ccccc1Cl)Nc1nc2ccc(S(=O)(=O)CCCN3CCCCC3)cc2s1 [Example 152, 2-Chloro-N-[[6-[3-(1-piperidyl)propylsulfonyl]benzothiazol-2-yl]carbamoyl]benzamide]
- pIC50 (human GHS receptor [1]): 7.72
- Emax (human GHS receptor [2]): 46.6%
- pEC50 (human GHS receptor [2]): 7.62

Compound: COCCNCCS(=O)(=O)c1ccc2nc(NC(=O)NC(=O)c3cc(-n4cccc4)ccc3Cl)sc2c1 [Example 80, 2-Chloro-N-[[6-[2-(2-methoxyethylamino)ethylsulfonyl]benzothiazol-2-yl]carbamoyl]-5-pyrrol-1-yl-benzamide]
- pIC50 (human GHS receptor [1]): 8.66
- Emax (human GHS receptor [2]): 9.77%
- pEC50 (human GHS receptor [2]): ≤ 4.60

Compound: CS(=O)(=O)c1ccc2nc(NC(=O)NC(=O)c3ccc(N4CCCC4)cc3Cl)sc2c1 [Example 117, 2-Chloro-N-[(6-methylsulfonylbenzothiazol-2-yl)carbamoyl]-4-pyrrolidin-1-yl-benzamide]
- pIC50 (human GHS receptor [1]): 7.42
- Emax (human GHS receptor [2]): 16.8%
- pEC50 (human GHS receptor [2]): 7.80

Compound: O=C(NC(=O)c1ccccc1Cl)Nc1nc2ccc(S(=O)(=O)CCN3CCCOCC3)cc2s1 [Example 30, 2-Chloro-N-[[6-[2-(1,4-oxazepan-4-yl)ethylsulfonyl]benzothiazol-2-yl]carbamoyl]benzamide]
- pIC50 (human GHS receptor [1]): 6.60
- Emax (human GHS receptor [2]): 23.8%
- pEC50 (human GHS receptor [2]): 7.41

Compound: CN(C)C1CCN(CCCS(=O)(=O)c2ccc3nc(NC(=O)NC(=O)c4ccccc4Cl)sc3c2)CC1 [Example 201, 2-Chloro-N-[[6-[3-(4-dimethylamino-1-piperidyl)propylsulfonyl]benzothiazol-2-yl]carbamoyl]benzamide]
- pIC50 (human GHS receptor [1]): 9.05
- Emax (human GHS receptor [2]): 29.7%
- pEC50 (human GHS receptor [2]): 8.34

Compound: NS(=O)(=O)c1ccc2nc(NC(=O)NC(=O)c3ccccc3Cl)sc2c1 [Example 229, 2-chloro-N-[(6-sulfamoyl-1,3-benzothiazol-2-yl)carbamoyl] benzamide]
- pIC50 (human GHS receptor [1]): 5.71
- Emax (human GHS receptor [2]): 18.2%
- pEC50 (human GHS receptor [2]): 6.93

Compound: O=C(NC(=O)c1ccccc1Cl)Nc1nc2ccc(S(=O)(=O)CCNC3CCCC3)cc2s1 [Example 17, 2-Chloro-N-[[6-[2-(cyclopentylamino)ethylsulfonyl]benzothiazol-2-yl]carbamoyl]benzamide]
- pIC50 (human GHS receptor [1]): 7.09
- Emax (human GHS receptor [2]): 42.1%
- pEC50 (human GHS receptor [2]): 8.22

Compound: C[C@@H]1CN(CCCS(=O)(=O)c2ccc3nc(NC(=O)NC(=O)c4ccccc4Cl)sc3c2)C[C@H](C)N1 [Example 196, 2-Chloro-N-[[6-[3-[(3S,5R)-3,5-dimethylpiperazin-1-yl]propylsulfonyl]benzothiazol-2-yl]carbamoyl]benzamide]
- pIC50 (human GHS receptor [1]): 8.82
- Emax (human GHS receptor [2]): 79.4%
- pEC50 (human GHS receptor [2]): 9.03

Compound: CN1CCC(S(=O)(=O)c2ccc3nc(NC(=O)NC(=O)c4cc(N5CCOCC5)c(Cl)cc4Cl)sc3c2)CC1 [Example 258, 2,4-dichloro-N-(6-(1-methylpiperidin-4-ylsulfonyl)benzo[d]thiazol-2-ylcarbamoyl)-5-morpholino-benzamide]
- pIC50 (human GHS receptor [1]): 7.98
- Emax (human GHS receptor [2]): 2.45%
- pEC50 (human GHS receptor [2]): 5.48

Compound: CN(C)S(=O)(=O)c1ccc2nc(NC(=O)NC(=O)c3ccccc3Cl)sc2c1 [Example 232, 2-chloro-N-[[6-(dimethylsulfamoyl)-1,3-benzothiazol-2-yl]carbamoyl] benzamide]
- pIC50 (human GHS receptor [1]): 7.50
- Emax (human GHS receptor [2]): 12.6%
- pEC50 (human GHS receptor [2]): 7.25

Compound: O=C(NC(=O)c1ccccc1Cl)Nc1nc2ccc(S(=O)(=O)CCCn3ccnc3)cc2s1 [Example 193, 2-Chloro-N-[[6-(3-imidazol-1-ylpropylsulfonyl)benzothiazol-2-yl]carbamoyl]benzamide]
- pIC50 (human GHS receptor [1]): 7.59
- Emax (human GHS receptor [2]): 30.6%
- pEC50 (human GHS receptor [2]): 7.73

Compound: CC1CCCCN1CCS(=O)(=O)c1ccc2nc(NC(=O)NC(=O)c3ccccc3Cl)sc2c1 (stereo not drawn) [Example 27, 2-Chloro-N-[[6-[2-(2-methyl-1-piperidyl)ethylsulfonyl]benzothiazol-2-yl]carbamoyl]benzamide]
- pIC50 (human GHS receptor [1]): 6.94
- Emax (human GHS receptor [2]): 46.7%
- pEC50 (human GHS receptor [2]): 7.64

Compound: O=C(NC(=O)c1ccccc1Cl)Nc1nc2ccc(S(=O)(=O)C3CCCNC3)cc2s1 (stereo not drawn) [Example 139, 2-Chloro-N-[[6-(3-piperidylsulfonyl)benzothiazol-2-yl]carbamoyl]benzamide]
- pIC50 (human GHS receptor [1]): 6.97
- Emax (human GHS receptor [2]): 46.7%
- pEC50 (human GHS receptor [2]): 7.56

Compound: O=C(NC(=O)c1ccccc1Cl)Nc1nc2ccc(S(=O)(=O)CCC3CCNCC3)cc2s1 [Example 221, 2-Chloro-N-[[6-[2-(4-piperidyl)ethylsulfonyl]benzothiazol-2-yl]carbamoyl]benzamide]
- pIC50 (human GHS receptor [1]): 7.81
- Emax (human GHS receptor [2]): 65%
- pEC50 (human GHS receptor [2]): 7.73

Compound: CSc1ccccc1C(=O)NC(=O)Nc1nc2ccc(S(C)(=O)=O)cc2s1 [Example 132, 2-Methylsulfanyl-N-[(6-methylsulfonylbenzothiazol-2-yl)carbamoyl]benzamide]
- pIC50 (human GHS receptor [1]): 6.18
- Emax (human GHS receptor [2]): 15.5%
- pEC50 (human GHS receptor [2]): 5.43

Compound: CS(=O)(=O)c1ccc2nc(NC(=O)NC(=O)c3cc(-n4cccc4)ccc3Cl)sc2c1 [Example 66, 2-Chloro-N-[(6-methylsulfonylbenzothiazol-2-yl)carbamoyl]-5-pyrrol-1-yl-benzamide]
- pIC50 (human GHS receptor [1]): 7.64
- Emax (human GHS receptor [2]): 0%
- pEC50 (human GHS receptor [2]): ≤ 4.60

Compound: Cc1ccnn1-c1ccc(Cl)c(C(=O)NC(=O)Nc2nc3ccc(S(=O)(=O)CCCN4CCN(C)CC4)cc3s2)c1 [Example 90, 2-Chloro-5-(5-methyl-1H-pyrazol-1-yl)-N-(6-(3-(4-methylpiperazin-1-yl)propylsulfonyl)benzothiazol-2-ylcarbamoyl)benzamide]
- pIC50 (human GHS receptor [1]): 9.15
- Emax (human GHS receptor [2]): 0%
- pEC50 (human GHS receptor [2]): < 4.60

Compound: CN1CCN(CCCS(=O)(=O)c2ccc3nc(NC(=O)NC(=O)c4cc(-n5cccn5)c(Cl)cc4Cl)sc3c2)CC1 [Example 241, 2,4-dichloro-N-(6-(3-(4-methylpiperazin-1-yl)propylsulfonyl)benzo[d]thiazol-2-ylcarbamoyl)-5-(1H-pyrazol-1-yl)benzamide]
- pIC50 (human GHS receptor [1]): 9.51
- Emax (human GHS receptor [2]): 0%
- pEC50 (human GHS receptor [2]): ≤ 4.70

Compound: CN1CCN(CCCS(=O)(=O)c2ccc3nc(NC(=O)NC(=O)c4cccc(-n5cccn5)c4Cl)sc3c2)CC1 [Example 240, 2-chloro-N-(6-(3-(4-methylpiperazin-1-yl)propylsulfonyl)benzo[d]thiazol-2-ylcarbamoyl)-3-(1H-pyrazol-1-yl)benzamide]
- pIC50 (human GHS receptor [1]): 8.05
- Emax (human GHS receptor [2]): 80.9%
- pEC50 (human GHS receptor [2]): 7.55

Compound: COc1cc(Cl)c(C(=O)NC(=O)Nc2nc3ccc(S(=O)(=O)C4CCN(C)CC4)cc3s2)cc1N1CCOCC1 [Example 255, 2-chloro-4-methoxy-N-(6-(1-methylpiperidin-4-ylsulfonyl)benzo [d]thiazol-2-ylcarbamoyl)-5-morpholino-benzamide]
- pIC50 (human GHS receptor [1]): 8.10
- Emax (human GHS receptor [2]): 80.9%
- pEC50 (human GHS receptor [2]): ≤ 4.70

Compound: O=C(NC(=O)c1ccccc1Cl)Nc1nc2ccc(S(=O)(=O)C3CN(CC4CC4)C3)cc2s1 [Example 175, 2-Chloro-N-[[6-[1-(cyclopropylmethyl)azetidin-3-yl]sulfonylbenzothiazol-2-yl]carbamoyl]benzamide]
- pIC50 (human GHS receptor [1]): 7.19
- Emax (human GHS receptor [2]): 30.1%
- pEC50 (human GHS receptor [2]): 7.65

Compound: CCc1ccc(Cl)c(C(=O)NC(=O)Nc2nc3ccc(S(=O)(=O)CCCN4CCN(C)CC4)cc3s2)c1 [Example 226, 2-chloro-5-ethyl-N-(6-(3-(4-methylpiperazin-1-yl)propylsulfonyl)-benzo[d]thiazol-2-ylcarbamoyl)benzamide]
- pIC50 (human GHS receptor [1]): 10.30
- Emax (human GHS receptor [2]): 22.3%
- pEC50 (human GHS receptor [2]): 8.66

Compound: CS(=O)(=O)c1ccc2nc(NC(=O)NC(=O)c3ccccc3Br)sc2c1 [Example 103, 2-Bromo-N-[(6-methylsulfonylbenzothiazol-2-yl)carbamoyl]benzamide]
- pIC50 (human GHS receptor [1]): 6.62
- Emax (human GHS receptor [2]): 20.5%
- pEC50 (human GHS receptor [2]): 6.34

Compound: O=C(NC(=O)c1ccccc1Cl)Nc1nc2ccc(S(=O)(=O)CCCN3CCNCC3)cc2s1 [Example 206, 2-Chloro-N-[[6-(3-piperazin-1-ylpropylsulfonyl)benzothiazol-2-yl]carbamoyl]benzamide]
- pIC50 (human GHS receptor [1]): 7.84
- Emax (human GHS receptor [2]): 69%
- pEC50 (human GHS receptor [2]): 8.02

Compound: CC(C)NCCS(=O)(=O)c1ccc2nc(NC(=O)NC(=O)c3cc(-n4cccc4)ccc3Br)sc2c1 [Example 83, 2-Bromo-N-(6-(2-(isopropylamino)ethylsulfonyl)benzothiazol-2-ylcarbamoyl)-5-(1H-pyrrol-1-yl)benzamide]
- pIC50 (human GHS receptor [1]): 8.89
- Emax (human GHS receptor [2]): 0%
- pEC50 (human GHS receptor [2]): ≤ 4.60

Compound: O=C(NC(=O)c1ccccc1Cl)Nc1nc2ccc(S(=O)(=O)[C@H]3CCNC3)cc2s1 [Example 171, 2-Chloro-N-[[6-[(3S)-pyrrolidin-3-yl]sulfonylbenzothiazol-2-yl]carbamoyl]benzamide]
- pIC50 (human GHS receptor [1]): 6.53
- Emax (human GHS receptor [2]): 44%
- pEC50 (human GHS receptor [2]): 7.73

Compound: O=C(NC(=O)c1ccccc1Cl)Nc1nc2ccc(S(=O)(=O)CCCNCCO)cc2s1 [Example 159, 2-Chloro-N-[[6-[3-(2-hydroxyethylamino)propylsulfonyl]benzothiazol-2-yl]carbamoyl]benzamide]
- pIC50 (human GHS receptor [1]): 8.07
- Emax (human GHS receptor [2]): 51.6%
- pEC50 (human GHS receptor [2]): 7.75
